Values quoted from earlier work in US20040142333A1, “Novel secreted proteins and their uses” (priority 2000, published 2004).
Where a SMILES comes first, the peptide text is derived from it. [ ]: non-standard residue; d: D form. The star is where a group is joined. 4Abz = Nc1ccc(C(=O)O)cc1; NHOH = ON*

Tests used:
[1] = biological target: T1, MMP-1 (Homo sapiens, UniProt P03956); settings: read-out: IC50 against MMP-1
T1 sequence (P03956 100-469): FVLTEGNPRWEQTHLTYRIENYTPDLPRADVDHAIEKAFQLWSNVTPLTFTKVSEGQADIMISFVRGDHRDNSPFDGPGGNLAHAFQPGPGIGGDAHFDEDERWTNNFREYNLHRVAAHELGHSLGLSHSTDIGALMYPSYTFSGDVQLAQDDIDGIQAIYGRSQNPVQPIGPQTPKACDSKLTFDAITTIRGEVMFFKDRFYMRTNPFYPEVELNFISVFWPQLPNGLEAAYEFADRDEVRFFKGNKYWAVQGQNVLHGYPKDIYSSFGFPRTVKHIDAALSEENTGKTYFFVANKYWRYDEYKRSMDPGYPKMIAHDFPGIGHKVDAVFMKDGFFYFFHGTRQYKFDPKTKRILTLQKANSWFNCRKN

[2] = biological target: MMP-8 (Homo sapiens, UniProt P22894); settings: read-out: IC50 against MMP-8
Sequence of MMP-8 (P22894 101-467, species assumed): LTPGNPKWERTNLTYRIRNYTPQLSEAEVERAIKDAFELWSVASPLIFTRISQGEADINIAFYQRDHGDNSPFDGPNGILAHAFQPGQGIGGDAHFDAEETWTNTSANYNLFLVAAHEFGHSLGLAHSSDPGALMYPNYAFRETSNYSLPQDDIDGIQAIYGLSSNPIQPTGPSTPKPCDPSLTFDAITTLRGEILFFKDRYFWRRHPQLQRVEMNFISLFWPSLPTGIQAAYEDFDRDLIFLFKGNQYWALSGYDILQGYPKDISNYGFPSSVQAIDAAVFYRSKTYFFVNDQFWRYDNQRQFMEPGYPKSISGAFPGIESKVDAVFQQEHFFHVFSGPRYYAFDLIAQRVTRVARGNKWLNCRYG

[3] = biological target: MMP-9 (Homo sapiens, UniProt P14780); settings: read-out: IC50 against MMP-9
Sequence of MMP-9 (P14780 94-707, species assumed): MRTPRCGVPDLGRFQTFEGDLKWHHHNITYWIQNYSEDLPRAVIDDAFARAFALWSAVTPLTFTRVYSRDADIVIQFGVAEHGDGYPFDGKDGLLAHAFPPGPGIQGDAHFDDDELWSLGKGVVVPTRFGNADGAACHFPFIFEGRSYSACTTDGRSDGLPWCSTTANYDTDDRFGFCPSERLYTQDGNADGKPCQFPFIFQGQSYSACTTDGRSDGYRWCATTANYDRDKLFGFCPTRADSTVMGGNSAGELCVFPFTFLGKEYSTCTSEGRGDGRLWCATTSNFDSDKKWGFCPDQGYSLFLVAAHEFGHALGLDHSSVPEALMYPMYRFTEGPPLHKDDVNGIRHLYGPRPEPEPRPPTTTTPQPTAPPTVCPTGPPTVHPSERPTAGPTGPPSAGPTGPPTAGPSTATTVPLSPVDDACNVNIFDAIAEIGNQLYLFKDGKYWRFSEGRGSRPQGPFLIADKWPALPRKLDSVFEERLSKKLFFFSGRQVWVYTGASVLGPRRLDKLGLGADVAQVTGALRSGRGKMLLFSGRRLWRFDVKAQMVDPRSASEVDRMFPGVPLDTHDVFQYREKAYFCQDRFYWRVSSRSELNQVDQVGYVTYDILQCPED

[4] = biological target: MMP-3 (Homo sapiens, UniProt P08254); settings: read-out: IC50 against MMP-3
Sequence of MMP-3 (P08254 100-477, species assumed): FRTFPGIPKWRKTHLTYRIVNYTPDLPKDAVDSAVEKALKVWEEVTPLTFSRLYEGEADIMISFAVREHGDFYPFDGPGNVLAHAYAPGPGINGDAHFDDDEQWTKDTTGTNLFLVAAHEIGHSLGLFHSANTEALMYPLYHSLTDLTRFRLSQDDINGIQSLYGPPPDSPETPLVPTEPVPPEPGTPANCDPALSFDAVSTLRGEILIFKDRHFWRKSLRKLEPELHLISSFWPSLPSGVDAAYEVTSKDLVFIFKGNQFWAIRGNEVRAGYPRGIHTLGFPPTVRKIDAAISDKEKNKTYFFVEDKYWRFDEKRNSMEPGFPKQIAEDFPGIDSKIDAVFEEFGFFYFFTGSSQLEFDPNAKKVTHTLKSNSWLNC

[5] = tested on: human metastatic melanoma (M24 cells)
[6] = tested on: M24 cells; settings: murine metastasis model

Compound | IC50 [1] | IC50 [2] | IC50 [3] | IC50 [4] | cell adhesion to type I collagen, vitronectin, and fibronectin [5] | lung colonization of M24 cells [6]
CC(C)C[C@@H](NC(=O)[C@@H]1CCCN1C(=O)CNC(=O)c1ccc(N)cc1)C(=O)N[C@H](C)C(=O)NO [MMP inhibitor I] (H-[4Abz]GP[dL][dA]-{NHOH}) | 1000 nM | 1000 nM | 30 µM | 150 µM |  | 
contortrostatin |  |  |  |  | inhibit | inhibits lung colonization
